Measurements from PubChem BioAssay AID2060508 (Molecular Pharmacology Branch, DTP, NCI, 2025).

System: 454973-116-R2-J3-PDC spheroids, viability, % test/control
Assay: Anticancer human tumor 454973-116-R2-J3-PDC patient-derived pancreatic carcinoma cell line growth inhibition [GQUAD]
Conditions: spheroids with HUVEC and MSC; for IC50: curve of first compound; for viability, T/C: stronger effect = lower value
Text: DNA G-quadruplex Stabilizer Agents in Combinations in Complex Spheroids
A high-throughput screen of multi-cell type tumor spheroids was designed to identify active combinations of DNA G-quadruplex stabilizer agents and targeted small molecules. Complex spheroids include a stromal component modeled by human endothelial cells (HUVEC) and fibroblasts modeled by human mesenchymal stem cells (MSCs). The concentration ranges selected for each drug and investigational agent were based upon clinically achievable concentrations if the clinical Cmax of the agent was known.
Compounds. The drugs and investigational agents: pidnarulex (CX-5461; NSC782164), APTO-253 (NSC789042), BRACO-19 (NSC847499), peposertib (NSC802822), ceralasertib (NSC780249), elimusertib (NSC800525), camonsertib (NSC841442), AZD-1390 (NSC803789), olaparib (NSC753686), talazoparib (NSC767125), ART-558 (NSC835418), sotorasib (NSC818433), MRTX-1133 (NSC836407), SN-38 (NSC673596), topotecan (NSC609699), etoposide (NSC141540), doxorubicin (NSC123127), gemcitabine (NSC613327), 5-fluorouracil (NSC19893), paclitaxel (NSC125973), vemurafenib (NSC761431), panobinostat (NSC761190), R-306465 (JNJ-16241199; NSC773264), adavosertib (NSC754352), TP-3654 (NSC805149), carboplatin (NSC241240), KSQ-4279 (NSC840948), and staurosporine (NSC755774) were obtained from the National Cancer Institute (NCI) Developmental Therapeutics Program Chemical Repository (34). The FDA-approved anticancer drug set is available from the NCI Developmental Therapeutics Program. […] The stock solutions were prepared in dimethyl sulfoxide (DMSO, Sigma-Aldrich, St. Louis, MO, cat. D2650) at 800-fold the tested concentration and stored at -70 degrees C prior to their use. All drugs and investigational agents were tested over a range starting from a high concentration at or near the clinical Cmax and decreasing in half-log increments. If the clinical Cmax for an agent had not been determined, the highest concentration tested was 10 microM.
2.3 Cell Culture. All cells were maintained in an incubator at 37 degrees C and 5% CO2 with 95% humidity. The PDC lines were cultured according to standard operating procedures established by the NCI PDMR. All PDCs were thawed and cultured in Matrigel-coated flasks prepared with a working solution of 1X Ham's F-12 nutrient mix, without supplementation (Invitrogen, cat. 11765054), 100 U/mL penicillin-streptomycin (Invitrogen, cat. 15140122), and 2.5% Matrigel (Corning Inc., cat. 354248) for the first three passages. The 857933-349-R-J2-PDC line was cultured in 6C/Colon 1B media, which includes advanced DMEM/F-12 (Thermo Fisher Scientific, cat. 12634028), 10 mM HEPES (Thermo Fisher Scientific, cat. 15630080), 1X GlutaMAX supplement (Thermo Fisher Scientific, cat. 35050061), 0.1 mg/mL primocin (InvivoGen, cat. ant-pm-2), 10% defined fetal bovine serum, heat inactivated (HyClone Laboratories Inc., cat. SH30070.03HI), 50% L-WRN conditioned media (ATCC, cat. CRL-3276), 1.25 mM N-Acetyl-L-cysteine (Sigma-Aldrich, cat. A9165), 10 mM nicotinamide (Sigma-Aldrich, cat. N0636), 1X B-27 supplement (Thermo Fisher Scientific, cat. 17504044), 1X N-2 supplement (Thermo Fisher Scientific, cat. 17502048), 10 microM Y-27632 dihydrochloride (Tocris Bioscience, cat. 1254), and 50 ng/mL human EGF recombinant protein (Thermo Fisher Scientific, cat. PHG0311). The 485176-168-R4-J1-PDC line was cultured in Panc media, which includes all 6C/Colon 1B media components plus 100 ng/mL human FGF-10 (Thermo Fisher Scientific, cat. 100-26), 500 nM SB-431542 (Selleckchem, cat. S1067), and gastrin (Tocris, cat. 3006).
[…]

[1] = second compound 0.0316 µM, first compound 0.000999 µM
[2] = second compound 0.0316 µM, first compound 0.00316 µM
[3] = second compound 0.0316 µM, first compound 0.00999 µM
[4] = second compound 0.0316 µM, first compound 0.0316 µM
[5] = second compound 0.0316 µM, first compound 0.0999 µM
[6] = second compound 0.0316 µM, first compound 0.316 µM
[7] = second compound 0.1 µM, first compound 0.000999 µM
[8] = second compound 0.1 µM, first compound 0.00316 µM
[9] = second compound 0.1 µM, first compound 0.00999 µM
[10] = second compound 0.1 µM, first compound 0.0316 µM
[11] = second compound 0.1 µM, first compound 0.0999 µM
[12] = second compound 0.1 µM, first compound 0.316 µM
[13] = second compound 0.316 µM, first compound 0.000999 µM
[14] = second compound 0.316 µM, first compound 0.00316 µM
[15] = second compound 0.316 µM, first compound 0.00999 µM
[16] = second compound 0.316 µM, first compound 0.0316 µM
[17] = second compound 0.316 µM, first compound 0.0999 µM
[18] = second compound 0.316 µM, first compound 0.316 µM
[19] = second compound 1 µM, first compound 0.000999 µM
[20] = second compound 1 µM, first compound 0.00316 µM
[21] = second compound 1 µM, first compound 0.00999 µM
[22] = second compound 1 µM, first compound 0.0316 µM
[23] = second compound 1 µM, first compound 0.0999 µM
[24] = second compound 1 µM, first compound 0.316 µM
[25] = second compound 3.16 µM, first compound 0.000999 µM
[26] = second compound 3.16 µM, first compound 0.00316 µM
[27] = second compound 3.16 µM, first compound 0.00999 µM
[28] = second compound 3.16 µM, first compound 0.0316 µM
[29] = second compound 3.16 µM, first compound 0.0999 µM
[30] = second compound 3.16 µM, first compound 0.316 µM
[31] = second compound 10 µM, first compound 0.000999 µM
[32] = second compound 10 µM, first compound 0.00316 µM
[33] = second compound 10 µM, first compound 0.00999 µM
[34] = second compound 10 µM, first compound 0.0316 µM
[35] = second compound 10 µM, first compound 0.0999 µM
[36] = second compound 10 µM, first compound 0.316 µM
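Also: spheroids exposed to compounds for seven days.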

CC[C@@]1(O)C(=O)OCc2c1cc1n(c2=O)Cc2cc3c(CN(C)C)c(O)ccc3nc2-1 + Cc1[nH]c2ccc(F)cc2c1-c1nc2c3cccnc3c3ncccc3c2[nH]1
IC50 (second compound 0.0316 µM): 0.0527 µM | IC50 (second compound 0.1 µM): 0.0478 µM | IC50 (second compound 0.316 µM): 0.0454 µM | IC50 (second compound 1 µM): 0.0443 µM | IC50 (second compound 3.16 µM): 0.0523 µM | IC50 (second compound 10 µM): 0.0379 µM | viability, T/C [1]: 97.3% | viability, T/C [2]: 95.9% | viability, T/C [3]: 94.7% | viability, T/C [4]: 69.2% | viability, T/C [5]: 25% | viability, T/C [6]: 26.9% | viability, T/C [7]: 114% | viability, T/C [8]: 93.7% | viability, T/C [9]: 102% | viability, T/C [10]: 66% | viability, T/C [11]: 20.8% | viability, T/C [12]: 21.8% | viability, T/C [13]: 102% | viability, T/C [14]: 119% | viability, T/C [15]: 92.7% | viability, T/C [16]: 65% | viability, T/C [17]: 19.7% | viability, T/C [18]: 20.7% | viability, T/C [19]: 103% | viability, T/C [20]: 99.3% | viability, T/C [21]: 94.6% | viability, T/C [22]: 62.4% | viability, T/C [23]: 19.6% | viability, T/C [24]: 20.7% | viability, T/C [25]: 97.7% | viability, T/C [26]: 101% | viability, T/C [27]: 85% | viability, T/C [28]: 70.9% | viability, T/C [29]: 20.8% | viability, T/C [30]: 25.2% | viability, T/C [31]: 100% | viability, T/C [32]: 83.9% | viability, T/C [33]: 82.3% | viability, T/C [34]: 56.7% | viability, T/C [35]: 23.2% | viability, T/C [36]: 23%

Cn1ncnc1[C@H]1c2n[nH]c(=O)c3cc(F)cc(c23)N[C@@H]1c1ccc(F)cc1 + Cc1[nH]c2ccc(F)cc2c1-c1nc2c3cccnc3c3ncccc3c2[nH]1
IC50 (second compound 0.0316 µM): > 0.316 µM | IC50 (second compound 0.1 µM): > 0.316 µM | IC50 (second compound 0.316 µM): > 0.316 µM | IC50 (second compound 1 µM): > 0.316 µM | IC50 (second compound 3.16 µM): > 0.316 µM | IC50 (second compound 10 µM): > 0.316 µM | viability, T/C [1]: 115% | viability, T/C [2]: 95.3% | viability, T/C [3]: 101% | viability, T/C [4]: 87.7% | viability, T/C [5]: 97.4% | viability, T/C [6]: 84% | viability, T/C [7]: 93.6% | viability, T/C [8]: 97.6% | viability, T/C [9]: 94.4% | viability, T/C [10]: 104% | viability, T/C [11]: 86.1% | viability, T/C [12]: 77.6% | viability, T/C [13]: 101% | viability, T/C [14]: 99.6% | viability, T/C [15]: 91.9% | viability, T/C [16]: 92.7% | viability, T/C [17]: 90.7% | viability, T/C [18]: 83.8% | viability, T/C [19]: 107% | viability, T/C [20]: 104% | viability, T/C [21]: 91.6% | viability, T/C [22]: 98% | viability, T/C [23]: 83.5% | viability, T/C [24]: 81% | viability, T/C [25]: 93.9% | viability, T/C [26]: 98.5% | viability, T/C [27]: 92.1% | viability, T/C [28]: 83% | viability, T/C [29]: 82.3% | viability, T/C [30]: 82% | viability, T/C [31]: 87.4% | viability, T/C [32]: 100% | viability, T/C [33]: 93% | viability, T/C [34]: 78.4% | viability, T/C [35]: 82.4% | viability, T/C [36]: 76.1%
